Results from patent US6166067A, “Inhibitors of cholesterol-biosynthesis for reducing the cholesterol content of poultry eggs” (priority 1998, dated 2000).
Counter-ions that a name gives are not always drawn. Like-named read-outs stand apart in the source and are kept apart here.

Key:
[1] = test system: cholesterol content of poultry eggs; conditions: cited from earlier work; for reduction of cholesterol content of poultry eggs: literature (Elkin et al.)
[2] = cited from earlier work
[3] = test system: cholesterol in yolk; assay: Cholesterol in egg yolk, laying-hen feeding trial (Example 2); format: in vivo, laying hens; conditions: for Cholesterol, yolk: control 10.23; for reduction in yolk cholesterol: significant; for trend in yolk cholesterol content: Example 2
From the text: (§1) For the cholesterol determination, the cholesterol esters were cleaved to cholesterol and fatty acid by the action of cholesterol esterase. Free cholesterol is converted by atmospheric oxygen with the involvement of cholesterol oxidase into Δ^4 -cholestenone and hydrogen peroxide. The resulting hydrogen peroxide forms with 4-aminophenazone and phenol through the catalytic action of peroxidase a red dye whose intensity of color is directly proportional to the cholesterol concentration and can be measured at 500 to 550 nm.
(§2) Another feeding experiment was carried out in analogy to Example 1. In this case the intention was to test not only α- and δ-tocotrienol but also a tocotrienol precursor (4-oxo-γ-tocotrienol) and other terpenoids such as farnesyl acetate, perillyl alcohol, linalool and β-ionone, in laying hens.
(§3) The trial protocol corresponds to that in Example 1 but with the following amendments:
(§4) The number of birds comprised 8 hens per treatment.
(§5) Triglyceride and cholesterol were determined in 4 independent yolk pools(each from 6 eggs) and plasma.

[4] = test system: plasma cholesterol; assay: Cholesterol in plasma, laying-hen feeding trial (Example 2); format: in vivo, laying hens; conditions: control 125.3
From the text: as §1, §2, §3, §4
(§6) 4 birds in each case from the control and the high dosages were sacrificed at the end of the trial. After taking blood to obtain plasma, the birds were completely exsanguinated. The liver was then removed and deep frozen until analyzed.
as §5

[5] = test system: triglycerides in yolk; assay: Triglycerides in egg yolk, laying-hen feeding trial (Example 2); format: in vivo, laying hens; conditions: control 170.4
Procedure: (§7) The triglycerides are determined enzymatically via their glycerol content. The triglycerides are cleaved enzymatically by the enzymes lipase and esterase. The resulting glycerol is phosphorylated by ATP to glycerol 3-phosphate in the reaction catalyzed by glycerol kinase GK.
as §2, §3, §4, §5

[6] = test system: plasma triglyceride; assay: Triglycerides in plasma, laying-hen feeding trial (Example 2); format: in vivo, laying hens; conditions: for Triglycerides, plasma: control 2496; for reduction of plasma triglyceride level: Example 2, maximum
Procedure: as §7, §2, §3, §4, §6, §5

[7] = test system: HMG-CoA reductase; conditions: cell culture and rats and mice; cited from earlier work
[8] = test system: tumors; conditions: cell culture and rats and mice; cited from earlier work
[9] = test system: cholesterol synthesis in macrophages; conditions: Fuhrmann et al. 1997; cited from earlier work
[10] = test system: total cholesterol in the yolk; assay: Total cholesterol in egg yolk, laying-hen feeding trial (Example 1); format: in vivo, laying hens (Lohmann Selected Leghorn); conditions: 4 weeks
Procedure: (§8) At the start of the trial, the laying hens (Lohmann Selected Leghorn) had been laying for 28 weeks. One treatment group consisted of 10 hens. The birds were initially fed with the various active ingredients for 4 weeks. The eggs were then collected for the analyses. 3 independent yolk pools were formed from 6 eggs in each case and were deep-frozen until analyzed. Total cholesterol and triglycerides in the yolk were analyzed by enzymatic methods. The analyses were carried out as stated in the handbook "Veterinarmedizinische Laboruntersuchungen fur die Diagnose und Verlaufskontrolle" (1985), 3rd edition, published by Boehringer Mannheim GmbH, Mannheim.
as §1
(§9) The data were subjected to analysis of variance, and differences between means were ranged by the Duncan test.

[11] = test system: triglycerides in the yolk; assay: Triglycerides in egg yolk, laying-hen feeding trial (Example 1); format: in vivo, laying hens (Lohmann Selected Leghorn); conditions: 4 weeks
Procedure: as §8, §7
glycerol+ATP.revreaction.glycerol 3-phosphate+ADP
The resulting ADP is converted by pyruvate kinase (PK) with phosphoenolpyruvate (PEP) back into ATP, with formation of pyruvate. [drawing 6] Pyruvate is hydrogenated to lactate by lactate dehydrogenase (LDH) with NADH, the NADH being oxidized to NAD. [drawing 7]
The amount of NADH consumed during the reaction is equivalent to the amount of glycerol. NADH is the measured variable and can easily be determined from its absorption at Hg 366 nm, Hg 334 nm or 340 nm.
as §9

[12] = Tocopherol and tocotrienol contents in yolk by HPLC (Example 1); format: in vivo, laying hens (Lohmann Selected Leghorn); conditions: for α-Tocopherol content in yolk / α-Tocotrienol content in yolk / γ-Tocopherol content in yolk / δ-Tocopherol content in yolk / δ-Tocotrienol content in yolk: after hydrolysis
Procedure: as §8
Tocopherols and tocotrienols in the yolk pools were determined by HPLC. To do this, the sample is hydrolyzed in aqueous alcoholic medium and extracted several times with diethyl ether. Quantification takes place by comparison with external standards.
Stationary phase: Spherisorb CN 5 μm, 250×4 mm
Mobile phase: n-Hexane with 0.25% i-propanol
Fluorescence detection: 292 nm (extinction) 326 nm (emission)

[13] = test system: β-hydroxy-β-methyl-glutaryl (HMG)-CoA reductase; conditions: cited from earlier work
[14] = both dosages (100 and 1000 mg/kg feed)
[15] = 500 mg/kg feed, significant, complete yolk

CC(C)c1c(Br)c(Br)c(-c2ccc(F)cc2)n1CC[C@@H](O)C[C@@H](O)CC(=O)O (relative stereo) [(±)-(R*,R*)-3,4-dibromo-β,δ-dihydroxy-2-(4-fluorophenyl)-5-(1-methylethyl)-1H-pyrrole-1-heptanoic acid, Na salt]
reduction of cholesterol content of poultry eggs [1]: 30% | influence on poultry performance parameters, such as the egg output ([2]; literature (Elkin et al.)): without influencing

C=CC(C)(O)CCC=C(C)C (centres unmarked) [Linalool, linalool]
Cholesterol, yolk ([3]; 100 mg/kg feed): 8.40 mg/g | Cholesterol, yolk ([3]; 1000 mg/kg feed): 8.97 mg/g | reduction in yolk cholesterol [3, 14]: up to 18% | Cholesterol, plasma ([4]; 1000 mg/kg feed): 211.6 mg/dL | Triglycerides, yolk ([5]; 100 mg/kg feed): 187.5 mg/g | Triglycerides, yolk ([5]; 1000 mg/kg feed): 163.1 mg/g | Triglycerides, plasma ([6]; 1000 mg/kg feed): 1907 mg/dL | inhibition of HMG-CoA reductase [7]: inhibit HMG-CoA reductase | inhibition of tumors [8]: inhibit tumors

CC1=C(/C=C/C(C)=C/C=C/C(C)=C/C=C/C=C(C)/C=C/C=C(C)/C=C/C2=C(C)CCCC2(C)C)C(C)(C)CCC1 [β-carotene]
inhibition of cholesterol synthesis in macrophages [9]: inhibit cholesterol synthesis in macrophages

CC(C)=CCC/C(C)=C/CO [geraniol, reference compound]
inhibition of HMG-CoA reductase [7]: inhibit HMG-CoA reductase | inhibition of tumors [8]: inhibit tumors

C=C(C)C1CC=C(CO)CC1 (centres unmarked) [Perillyl alcohol, perillyl alcohol]
Cholesterol, yolk ([3]; 500 mg/kg feed): 9.55 mg/g | Cholesterol, yolk ([3]; 5000 mg/kg feed): 9.53 mg/g | trend in yolk cholesterol content [3]: trend toward reduced cholesterol contents in yolk | Cholesterol, plasma ([4]; 5000 mg/kg feed): 165.3 mg/dL | Triglycerides, yolk ([5]; 500 mg/kg feed): 188.5 mg/g | Triglycerides, yolk ([5]; 5000 mg/kg feed): 174.4 mg/g | Triglycerides, plasma ([6]; 5000 mg/kg feed): 2197 mg/dL | reduction of plasma triglyceride level [6]: ≤ 25%

CC(C)=CCC/C(C)=C/C=C/C(C)=C/C=C/C(C)=C/C=C/C=C(C)/C=C/C=C(C)/C=C/C=C(\C)CCC=C(C)C [lycopene]
inhibition of cholesterol synthesis in macrophages [9]: inhibit cholesterol synthesis in macrophages

CC[C@H](C)C(=O)O[C@H]1C[C@@H](C)C=C2C=C[C@H](C)[C@H](CC[C@@H]3C[C@@H](O)CC(=O)O3)[C@H]21 [lovastatin]
reduction of cholesterol content of poultry eggs [1]: 15% | influence on poultry performance parameters, such as the egg output ([2]; in vivo): without influencing

CC(=O)OC/C=C(\C)CC/C=C(\C)CCC=C(C)C [Farnesyl acetate, farnesyl acetate]
Cholesterol, yolk ([3]; 750 mg/kg feed): 10.15 mg/g | Cholesterol, yolk ([3]; 7500 mg/kg feed): 10.23 mg/g | Cholesterol, plasma ([4]; 7500 mg/kg feed): 129.3 mg/dL | Triglycerides, yolk ([5]; 750 mg/kg feed): 177.1 mg/g | Triglycerides, yolk ([5]; 7500 mg/kg feed): 175.9 mg/g | Triglycerides, plasma ([6]; 7500 mg/kg feed): 1929 mg/dL | reduction of plasma triglyceride level [6]: ≤ 25%

CC(=O)Oc1cc2c(c(C)c1C)OC(C)(CC/C=C(\C)CC/C=C(\C)CCC=C(C)C)CC2 (racemic) [γ-tocotrienol acetate]
reduction in cholesterol in the yolk [10, 15]: 15% | effect on cholesterol in the yolk ([10]; low dosage, 20 mg/kg feed): no effect | reduction in triglycerides in the yolk [11, 15]: 15% | effect on triglycerides in the yolk ([11]; low dosage, 20 mg/kg feed): no effect | α-Tocopherol content in yolk ([12]; 20 mg/kg feed): 545 μg/yolk | α-Tocotrienol content in yolk ([12]; 20 mg/kg feed): 0 μg/yolk | γ-Tocopherol content in yolk ([12]; 20 mg/kg feed): 393 μg/yolk | δ-Tocopherol content in yolk ([12]; 20 mg/kg feed): 57 μg/yolk | δ-Tocotrienol content in yolk ([12]; 20 mg/kg feed): 0 μg/yolk | α-Tocopherol content in yolk ([12]; 500 mg/kg feed): 433 μg/yolk | α-Tocotrienol content in yolk ([12]; 500 mg/kg feed): 0 μg/yolk | γ-Tocopherol content in yolk ([12]; 500 mg/kg feed): 425 μg/yolk | δ-Tocopherol content in yolk ([12]; 500 mg/kg feed): 59 μg/yolk | δ-Tocotrienol content in yolk ([12]; 500 mg/kg feed): 366 μg/yolk

nicotinate [reference compound]
effect of ester form by comparison with the alcohol and acetate forms ([13]; U.S. Pat. No. 5,217,992): most pronounced

CC(=O)/C=C/C1=C(C)CCCC1(C)C [β-Ionone, β-ionone]
Cholesterol, yolk ([3]; 100 mg/kg feed): 9.03 mg/g | Cholesterol, yolk ([3]; 1000 mg/kg feed): 9.03 mg/g | reduction in yolk cholesterol [3, 14]: up to 18% | Cholesterol, plasma ([4]; 1000 mg/kg feed): 201.3 mg/dL | Triglycerides, yolk ([5]; 100 mg/kg feed): 190.7 mg/g | Triglycerides, yolk ([5]; 1000 mg/kg feed): 184.8 mg/g | Triglycerides, plasma ([6]; 1000 mg/kg feed): 1954 mg/dL | reduction of plasma triglyceride level [6]: ≤ 25% | inhibition of HMG-CoA reductase [7]: inhibit HMG-CoA reductase | inhibition of tumors [8]: inhibit tumors

CC(C)=CCC/C(C)=C/CC/C(C)=C/CCC1(C)CC(=O)c2cc(O)c(C)c(C)c2O1 (centres unmarked) [4-Oxo-γ-tocotrienol, 4-oxo-γ-tocotrienol]
Cholesterol, yolk ([3]; 50 mg/kg feed): 9.78 mg/g | Cholesterol, yolk ([3]; 500 mg/kg feed): 8.55 mg/g | reduction in yolk cholesterol ([3]; high dosage (500 mg/kg feed)): up to 18% | Cholesterol, plasma ([4]; 500 mg/kg feed): 166.8 mg/dL | Triglycerides, yolk ([5]; 50 mg/kg feed): 188.3 mg/g | Triglycerides, yolk ([5]; 500 mg/kg feed): 172.0 mg/g | Triglycerides, plasma ([6]; 500 mg/kg feed): 4336 mg/dL

CC(C)=CCC/C(C)=C/CC/C(C)=C/CCC1(C)CCc2cc(O)cc(C)c2O1 (centres unmarked) [δ-Tocotrienol, δ-tocotrienol]
Cholesterol, yolk ([3]; 50 mg/kg feed): 9.25 mg/g | Cholesterol, yolk ([3]; 500 mg/kg feed): 9.23 mg/g | trend in yolk cholesterol content [3]: trend toward reduced cholesterol contents in yolk | Cholesterol, plasma ([4]; 500 mg/kg feed): 163.0 mg/dL | Triglycerides, yolk ([5]; 50 mg/kg feed): 185.2 mg/g | Triglycerides, yolk ([5]; 500 mg/kg feed): 163.9 mg/g | Triglycerides, plasma ([6]; 500 mg/kg feed): 2985 mg/dL

CCC(C)(C)C(=O)O[C@H]1C[C@@H](C)C=C2C=C[C@H](C)[C@H](CC[C@@H]3C[C@@H](O)CC(=O)O3)[C@H]21 [simvastatin]
effect on the cholesterol content in eggs ([1]; literature (Huggett et al.; Beyer and Jensen)): no effect

CC(C)=CCC/C(C)=C/CC/C(C)=C/CCC1(C)CCc2cc(O)c(C)c(C)c2O1 (centres unmarked) [γ-tocotrienol]
accumulation of γ-tocotrienol in the yolk ([12]; fed as γ-tocotrienol acetate): scarcely any accumulation | γ-tocotrienol detected in the yolk ([12]; high dosage (500 mg/kg feed, as acetate)): 366 µg | relative effect versus α-tocotrienol ([13]; HepG2 cell cultures): about 30 times

C=C(C)[C@H]1CC=C(C)CC1 [d-limonene]
inhibition of HMG-CoA reductase [7]: inhibit HMG-CoA reductase | inhibition of tumors [8]: inhibit tumors
